The structures appear in SMILES notation. Where a name gives a salt, the structure may show the parent alone.

What is called Ki is the dissociation constant of the complex between target and ligand, obtained from inhibition or displacement.

T1 sequence (P20309 whole entry): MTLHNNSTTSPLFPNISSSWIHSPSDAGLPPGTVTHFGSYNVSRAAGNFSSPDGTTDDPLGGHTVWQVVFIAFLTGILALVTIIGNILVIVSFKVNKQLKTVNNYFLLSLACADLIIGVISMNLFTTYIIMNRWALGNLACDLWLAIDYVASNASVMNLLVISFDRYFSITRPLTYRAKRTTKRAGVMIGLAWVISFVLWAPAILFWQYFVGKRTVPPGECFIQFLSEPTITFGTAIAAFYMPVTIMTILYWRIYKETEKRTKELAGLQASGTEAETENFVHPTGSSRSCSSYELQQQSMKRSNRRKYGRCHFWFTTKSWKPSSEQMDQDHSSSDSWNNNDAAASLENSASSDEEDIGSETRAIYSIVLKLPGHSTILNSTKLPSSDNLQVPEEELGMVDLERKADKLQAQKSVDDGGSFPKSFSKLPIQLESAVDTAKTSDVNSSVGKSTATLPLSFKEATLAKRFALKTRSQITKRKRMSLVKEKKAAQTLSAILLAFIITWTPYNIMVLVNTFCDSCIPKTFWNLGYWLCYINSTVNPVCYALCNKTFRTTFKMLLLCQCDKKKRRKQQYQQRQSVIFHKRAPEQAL

The first assay concerns the target T1, Recombinant human M3 receptor (Homo sapiens, UniProt P20309).
T1 construct: expressed in transfected cells; host or cells: CHO-K1 cells (membranes)
In words: biochemical. The format is binding. To be noted: M3, SPA format assay; read-out: Ki in the SPA format assay.
For the compound `O[C@](c1ccccc1)(c1ncc(C[N+]23CCC(CC2)[C@@H](Oc2ccc(F)cc2)C3)o1)C1CCCCC1` [Example 66, (R)-1-[2-((R)—Cyclohexyl-hydroxy-phenyl-methyl)-oxazol-5-ylmethyl]-3-(4-fluoro-phenoxy)-1-azonia-bicyclo[2.2.2]octane; bromide], the Ki stood at 0.09 nM.

Still in this assay, the particulars now being: SPA format; read-out: M3 Ki (SPA format).
Take `OC(c1ccccc1)(c1noc(C[N+]23CCC(CC2)[C@@H](Oc2cccc(F)c2)C3)n1)C1CCCCC1` (single isomer, unassigned) [Example 128]: the Ki is below 5 nM. Same read-out and setting: under `O[C@](c1ccccc1)(c1ncc(C[N+]23CCC(CC2)C(COc2ccc(F)cc2)C3)o1)C1CCCCC1` (single isomer, unassigned) [Example 82] stands below 5 nM; under `OC(c1ccccc1)(c1ccccc1)c1ncc(C[N+]23CCC(CC2)[C@@H](Sc2cccc(F)c2)C3)o1` [Example 98, (R)-3-(3-Fluoro-phenylsulfanyl)-1-[2-(hydroxy-diphenyl-methyl)-oxazol-5-ylmethyl]-1-azonia-bicyclo[2.2.2]octane; bromide], below 5 nM. The same measure, in the same setting: under `OC(c1ccccc1)(c1noc(C[N+]23CCC(CC2)[C@@H](CSc2ccccc2)C3)n1)C1CCCCC1` (single isomer, unassigned) [Example 132] stands below 5 nM. On the same count and under the same terms, under `O[C@](c1ccccc1)(c1ncc(C[N+]23CCC(CC2)[C@@H](OCc2ccc(Cl)c(Cl)c2)C3)o1)C1CCCC1` [Example 45, (R)-1-[2-((R)-cyclopentyl-hydroxy-phenyl-methyl)-oxazol-5-ylmethyl]-3-(3,4-dichloro-benzyloxy)-1-azonia-bicyclo[2.2.2]octane; formate] stands below 5 nM; under `O[C@](c1ccccc1)(c1ncc(C[N+]23CCC(CC2)C(COc2cccc(F)c2)C3)o1)C1CCCCC1` (single isomer, unassigned) [Example 81], below 5 nM; under `O[C@](c1ccccc1)(c1ncc(C[N+]23CCC(CC2)[C@@H](CSc2ccccc2)C3)o1)C1CCCCC1` [Example 100, (R)-1-[2-((R)—Cyclohexyl-hydroxy-phenyl-methyl)-oxazol-5-ylmethyl]-3-phenylsulfanylmethyl-1-azonia-bicyclo[2.2.2]octane; bromide], below 5 nM.

With `OC(c1ccccc1)(c1cc(C[N+]23CCC(CC2)[C@@H](OCc2ccccc2)C3)on1)C1CCCCC1` (single isomer, unassigned) [Example 31, formate], the inhibitory constant (Ki) is below 5 nM. The same measure, in the same setting: then `O[C@](c1ccccc1)(c1ncc(C[N+]23CCC(CC2)[C@@H](Oc2ccc(F)cc2)C3)o1)C1CCCCC1` [Example 66, (R)-1-[2-((R)—Cyclohexyl-hydroxy-phenyl-methyl)-oxazol-5-ylmethyl]-3-(4-fluoro-phenoxy)-1-azonia-bicyclo[2.2.2]octane; bromide], with below 5 nM; and `OC(c1ccccc1)(c1ccccc1)c1ncc(C[N+]23CCC(CC2)[C@@H](Oc2cccs2)C3)o1` [Example 102, (R)-1-[2-(Hydroxy-diphenyl-methyl)-oxazol-5-ylmethyl]-3-(thiophen-2-yloxy)-1-azonia-bicyclo[2.2.2]octane; bromide], with 5 to 20 nM. Still for that read-out and setting: under `OC(c1ccccc1)(c1ccccc1)c1ncc(C[N+]23CCC(CC2)[C@@H](Oc2ccc(Cl)c(Cl)c2)C3)o1` [Example 78, (R)-3-(3,4-dichloro-phenoxy)-1-[2-(hydroxy-diphenyl-methyl)-oxazol-5-ylmethyl]-1-azonia-bicyclo[2.2.2]octane; bromide] stands below 5 nM; under `OC(c1ccccc1)(c1ccccc1)c1ncc(C[N+]23CCC(CC2)[C@@H](Oc2ccc(C(F)(F)F)cc2)C3)o1` [Example 57, (R)-1-[2-(Hydroxy-diphenyl-methyl)-oxazol-5-ylmethyl]-3-(4-trifluoromethyl-phenoxy)-1-azonia-bicyclo[2.2.2]octane; bromide], 5 to 20 nM. On the same count and under the same terms, under `C=CCOCC1C[N+]2(Cc3cnc([C@](O)(c4ccccc4)C4CCCCC4)o3)CCC1CC2` (single isomer, unassigned) [Example 89, formate] stands below 5 nM. For the compound `OC(c1ccccc1)(c1ccccc1)c1ncc(C[N+]23CCC(CC2)C(COc2cccc(F)c2)C3)o1` (single isomer, unassigned) [Example 84, 3-(3-Fluoro-phenoxymethyl)-1-[2-(hydroxy-diphenyl-methyl)-oxazol-5-ylmethyl]-1-azonia-bicyclo[2.2.2]octane; bromide], the Ki was below 5 nM. The same measure, in the same setting: then `OC(c1ccccc1)(c1ccccc1)c1ncc(C[N+]23CCC(CC2)[C@@H](Sc2ccc(F)c(F)c2)C3)o1` [Example 99, (R)-3-(3,4-Difluoro-phenylsulfanyl)-1-[2-(hydroxy-diphenyl-methyl)-oxazol-5-ylmethyl]-1-azonia-bicyclo[2.2.2]octane; bromide], with below 5 nM; and `OC(c1ccccc1)(c1ccccc1)c1ncc(C[N+]23CCC(CC2)[C@@H](COc2ccccc2)C3)o1` [Example 26, (R)-1-[2-(Hydroxy-diphenyl-methyl)-oxazol-5-ylmethyl]-3-phenoxymethyl-1-azonia-bicyclo[2.2.2]octane; bromide], with below 5 nM.

In the case of `O[C@](c1ccccc1)(c1ncc(C[N+]23CCC(CC2)[C@H](CSc2ccc(F)cc2)C3)o1)C1CCCCC1` [Example 109, (S)-1-[2-((R)—Cyclohexyl-hydroxy-phenyl-methyl)-oxazol-5-ylmethyl]-3-(4-fluoro-phenylsulfanylmethyl)-1-azonia-bicyclo[2.2.2]octane; bromide], the Ki was below 5 nM. On the same count and under the same terms, then `O[C@](c1ccccc1)(c1ncc(C[N+]23CCC(CC2)[C@@H](CSc2ccc(Cl)cc2)C3)o1)C1CCCCC1` [Example 107, (R)-3-(4-Chloro-phenylsulfanylmethyl)-1-[2-(R)cyclohexyl-hydroxy-phenyl-methyl)-oxazol-5-ylmethyl]-1-azonia-bicyclo[2.2.2]octane; bromide], with below 5 nM; and `O[C@](c1ccccc1)(c1ncc(C[N+]23CCC(CC2)[C@@H](OCc2ccc(Cl)cc2)C3)o1)C1CCCC1` [Example 44, (R)-3-(4-chloro-benzyloxy)-1-[2-((R)-cyclopentyl-hydroxy-phenyl-methyl)-oxazol-5-ylmethyl]-1-azonia-bicyclo[2.2.2]octane; formate], with below 5 nM; and `C=C(C)CO[C@H]1C[N+]2(Cc3cnc([C@](O)(c4ccccc4)C4CCCCC4)o3)CCC1CC2` [Example 112, (R)-1-[2-((R)—Cyclohexyl-hydroxy-phenyl-methyl)-oxazol-5-ylmethyl]-3-(2-methyl-allyloxy)-1-azonia-bicyclo[2.2.2]octane; bromide], with below 5 nM. For `O[C@](c1ccccc1)(c1ncc(C[N+]23CCC(CC2)[C@@H](OC2CCCCO2)C3)o1)C1CCCCC1` (stereo partly drawn) [Example 96, (R)-1-[2-((R)—Cyclohexyl-hydroxy-phenyl-methyl)-oxazol-5-ylmethyl]-3-(tetrahydro-pyran-2-yloxy)-1-azonia-bicyclo[2.2.2]octane; bromide], the Ki is below 5 nM. In the case of `O[C@](c1ccccc1)(c1ncc(C[N+]23CCC(CC2)[C@@H](OCc2cccc(F)c2)C3)o1)C1CCCCC1` [Example 35, (R)-1-[2-((R)-cyclohexyl-hydroxy-phenyl-methyl)-oxazol-5-ylmethyl]-3-(3-fluoro-benzyloxy)-1-azonia-bicyclo[2.2.2]octane; formate], the Ki was below 5 nM.

Regarding `OC(c1ccccc1)(c1ccccc1)c1ncc(C[N+]23CCC(CC2)[C@@H](Oc2cccc(Cl)c2)C3)o1` [Example 62, (R)-3-(3-Chloro-phenoxy)-1-[2-(hydroxy-diphenyl-methyl)-oxazol-5-ylmethyl]-1-azonia-bicyclo[2.2.2]octane; bromide], the Ki is below 5 nM.

As to `OC(c1ccccc1)(c1cc(C[N+]23CCC(CC2)[C@@H](CSc2ccccc2)C3)on1)C1CCCCC1` (single isomer, unassigned) [Example 124], the Ki was below 5 nM. The same measure, in the same setting: then `OC(c1ccccc1)(c1ccccc1)c1ncc(C[N+]23CCC(CC2)[C@@H](Oc2cccc(F)c2)C3)o1` [Example 73, (R)-3-(3-Fluoro-phenoxy)-1-[2-(hydroxy-diphenyl-methyl)-oxazol-5-ylmethyl]-1-azonia-bicyclo[2.2.2]octane; bromide], with below 5 nM. Same read-out and setting: then `OC(c1ccccc1)(c1noc(C[N+]23CCC(CC2)[C@@H](SCc2ccccc2)C3)n1)C1CCCCC1` (single isomer, unassigned) [Example 127], with below 5 nM; and `OC(c1ccccc1)(c1noc(C[N+]23CCC(CC2)[C@@H](OCc2ccc(F)cc2)C3)n1)C1CCCCC1` (single isomer, unassigned) [Example 130], with below 5 nM. The same measure, in the same setting: under `OC(c1ccccc1)(c1ccccc1)c1ncc(C[N+]23CCC(CC2)[C@@H](OCc2ccccc2)C3)o1` [Example 27, (R)-3-Benzyloxy-1-[2-(hydroxy-diphenyl-methyl)-oxazol-5-ylmethyl]-1-azonia-bicyclo[2.2.2]octane; bromide] stands below 5 nM; under `O[C@](c1ccccc1)(c1ncc(C[N+]23CCC(CC2)[C@@H](Sc2cccc(F)c2)C3)o1)C1CCCCC1` [Example 105, (R)-1-[2-((R)—Cyclohexyl-hydroxy-phenyl-methyl)-oxazol-5-ylmethyl]-3-(3-fluoro-phenylsulfanyl)-1-azonia-bicyclo[2.2.2]octane; bromide], below 5 nM. In the case of `O[C@](c1ccccc1)(c1ncc(C[N+]23CCC(CC2)C(CCc2ccccc2)C3)o1)C1CCCCC1` (stereo partly drawn) [Example 36, 1-[2-((R)—Cyclohexyl-hydroxy-phenyl-methyl)-oxazol-5-ylmethyl]-3-phenethyl-1-azonia-bicyclo[2.2.2]octane; bromide], the Ki was below 5 nM. Regarding `O[C@](c1ccccc1)(c1ncc(C[N+]23CCC(CC2)C(c2ccccc2)C3)o1)C1CCCCC1` (stereo partly drawn) [Example 88, 1-[2-((R)—Cyclohexyl-hydroxy-phenyl-methyl)-oxazol-5-ylmethyl]-3-phenyl-1-azonia-bicyclo[2.2.2]octane; bromide], the Ki lay within 5 to 20 nM.

In the case of `OC(c1ccccc1)(c1noc(C[N+]23CCC(CC2)[C@@H](Sc2ccccc2)C3)n1)C1CCCCC1` (single isomer, unassigned) [Example 131], the Ki is below 5 nM. Still for that read-out and setting: under `N#Cc1cccc(O[C@H]2C[N+]3(Cc4nc(C(O)(c5ccccc5)c5ccccc5)no4)CCC2CC3)c1` [Example 139, (R)-3-(3-Cyano-phenoxy)-1-[3-(hydroxy-diphenyl-methyl)-[1,2,4]oxadiazol-5-ylmethyl]-1-azonia-bicyclo[2.2.2]octane; chloride] stands below 5 nM.

The values above are taken from US20100056565A1, “Heterocyclic Derivatives as M3 Muscarinic Receptors” (priority 2007, published 2010).
